Series [1] in a line: Measurement of decomposition point (TG-DTA). It counts as physicochemical. The conditions noted are these: TG-DTA up to 800° C. at 10° C./minute, extrapolation temperature of the peak of the TG curve. The protocol: About 5 mg of each of color materials A to S of Examples 1 to 9 and Comparative examples 1 to 10, was put in a quartz pan, and measured by means of a differential thermogravimetric analyzer (TG-DTA) (product name; TG8120; manufactured by: Rigaku Corporation) up to 800° C. at a heating rate of 10° C./minute, placing alumina on the quartz pan as a reference. The extrapolation temperature of the peak of the thus-obtained TG curve was used as the decomposition point. The temperature of the decomposition point can be used as an indicator of heat resistance.

The nature of series [2]: Measurement of thermal stability (weight reduction rate, TG-DTA). It counts as physicochemical. The following applies: heated to 230° C. at 10° C./minute, kept 60 minutes at 230° C. The protocol:
About 5 mg of each of color materials A to S of Examples 1 to 9 and Comparative examples 1 to 10, was put in a quartz pan and heated up to 230° C. at a heating rate of 10° C./minute, placing alumina on the quartz pan as a reference, by means of a differential thermogravimetric analyzer (TG-DTA) (product name; TG8120; manufactured by: Rigaku Corporation). After reaching 230° C., the temperature was kept for 60 minutes at 230° C. Then, a weight reduction rate was measured. The weight reduction rate was calculated by the following formula and can be used as an indicator of heat resistance. Weight reduction rate=(weight before heating−weight after heating)/weight before heating×100(%)

Turning to `CCN(CC)c1ccc(C(=C2C=CC(=[N+](CC)CC)C=C2)c2ccc(NCc3ccc(CNc4ccc(C(=C5C=CC(=[N+](CC)CC)C=C5)c5ccc(N(CC)CC)cc5)c5ccccc45)cc3)c3ccccc23)cc1` [Color material B], the Decomposition point in series [1] (listed as B) was 258 °C. Further, the Weight reduction rate in series [2] (listed as B) is listed as −10.7%.
As for `CCN(CC)c1ccc(C(=C2C=CC(=[N+](CC)CC)C=C2)c2ccc(NCc3ccc(CNc4ccc(C(=C5C=CC(=[N+](CC)CC)C=C5)c5ccc(N(CC)CC)cc5)c5ccccc45)cc3)c3ccccc23)cc1` [Color material J], in series [1] (listed as J), the Decomposition point is 248 °C. Also, in series [2] (listed as J), the Weight reduction rate is recorded as −35.1%.
With `CCNc1ccc(C(=C2C=CC(=[N+](CC)CC)C=C2)c2ccc(N(CC)CC)cc2)c2ccccc12` [Color material L], in series [1] (listed as L), the Decomposition point is 241 °C. Also, in series [2] (listed as L), the Weight reduction rate is −31.8%.
As to `CCNc1ccc(C(=C2C=CC(=[N+](CC)CC)C=C2)c2ccc(N(CC)CC)cc2)c2ccccc12` [Color material R], the Decomposition point in series [1] (listed as R) was 259 °C. Besides, the Weight reduction rate in series [2] (listed as R) is −30.5%.
For the compound `CCNc1ccc(C(=C2C=CC(=[N+](CC)CC)C=C2)c2ccc(N(CC)CC)cc2)c2ccccc12` [Color material Q], in series [1] (listed as Q), the Decomposition point was 258 °C. The Weight reduction rate in series [2] (listed as Q) is reported as −30.1%.
Regarding `CCNc1ccc(C(=C2C=CC(=[N+](CC)CC)C=C2)c2ccc(N(CC)CC)cc2)c2ccccc12` [Color material N], the Decomposition point in series [1] (listed as N) was 251 °C. Moreover, the Weight reduction rate in series [2] (listed as N) is −38.3%.
Take `CCN(CC)c1ccc(C(=C2C=CC(=[N+](CC)CC)C=C2)c2ccc(NCc3ccc(CNc4ccc(C(=C5C=CC(=[N+](CC)CC)C=C5)c5ccc(N(CC)CC)cc5)c5ccccc45)cc3)c3ccccc23)cc1` [Color material A]: in series [1] (listed as A), the Decomposition point was 253 °C. The Weight reduction rate in series [2] (listed as A) was −19.1%.
Regarding `CCNc1ccc(C(=C2C=CC(=[N+](CC)CC)C=C2)c2ccc(N(CC)CC)cc2)c2ccccc12` [Color material K], the Decomposition point in series [1] (listed as K) is 237 °C. The Weight reduction rate in series [2] (listed as K) is recorded as −32.8%.

The values above are taken from patent US9266905B2, “Color material and method for producing the same” (DAI NIPPON PRINTING CO., LTD., priority 2011, dated 2016).
